These are literature values, as cited in patent US20080262249A1, “Psorospermin and Analogues” (priority 2004, published 2008).

For data set [1], the target named is T1, topoisomerase II-DNA complex (Drosophila melanogaster, UniProt P15348).
T1 sequence (P15348 1-1447): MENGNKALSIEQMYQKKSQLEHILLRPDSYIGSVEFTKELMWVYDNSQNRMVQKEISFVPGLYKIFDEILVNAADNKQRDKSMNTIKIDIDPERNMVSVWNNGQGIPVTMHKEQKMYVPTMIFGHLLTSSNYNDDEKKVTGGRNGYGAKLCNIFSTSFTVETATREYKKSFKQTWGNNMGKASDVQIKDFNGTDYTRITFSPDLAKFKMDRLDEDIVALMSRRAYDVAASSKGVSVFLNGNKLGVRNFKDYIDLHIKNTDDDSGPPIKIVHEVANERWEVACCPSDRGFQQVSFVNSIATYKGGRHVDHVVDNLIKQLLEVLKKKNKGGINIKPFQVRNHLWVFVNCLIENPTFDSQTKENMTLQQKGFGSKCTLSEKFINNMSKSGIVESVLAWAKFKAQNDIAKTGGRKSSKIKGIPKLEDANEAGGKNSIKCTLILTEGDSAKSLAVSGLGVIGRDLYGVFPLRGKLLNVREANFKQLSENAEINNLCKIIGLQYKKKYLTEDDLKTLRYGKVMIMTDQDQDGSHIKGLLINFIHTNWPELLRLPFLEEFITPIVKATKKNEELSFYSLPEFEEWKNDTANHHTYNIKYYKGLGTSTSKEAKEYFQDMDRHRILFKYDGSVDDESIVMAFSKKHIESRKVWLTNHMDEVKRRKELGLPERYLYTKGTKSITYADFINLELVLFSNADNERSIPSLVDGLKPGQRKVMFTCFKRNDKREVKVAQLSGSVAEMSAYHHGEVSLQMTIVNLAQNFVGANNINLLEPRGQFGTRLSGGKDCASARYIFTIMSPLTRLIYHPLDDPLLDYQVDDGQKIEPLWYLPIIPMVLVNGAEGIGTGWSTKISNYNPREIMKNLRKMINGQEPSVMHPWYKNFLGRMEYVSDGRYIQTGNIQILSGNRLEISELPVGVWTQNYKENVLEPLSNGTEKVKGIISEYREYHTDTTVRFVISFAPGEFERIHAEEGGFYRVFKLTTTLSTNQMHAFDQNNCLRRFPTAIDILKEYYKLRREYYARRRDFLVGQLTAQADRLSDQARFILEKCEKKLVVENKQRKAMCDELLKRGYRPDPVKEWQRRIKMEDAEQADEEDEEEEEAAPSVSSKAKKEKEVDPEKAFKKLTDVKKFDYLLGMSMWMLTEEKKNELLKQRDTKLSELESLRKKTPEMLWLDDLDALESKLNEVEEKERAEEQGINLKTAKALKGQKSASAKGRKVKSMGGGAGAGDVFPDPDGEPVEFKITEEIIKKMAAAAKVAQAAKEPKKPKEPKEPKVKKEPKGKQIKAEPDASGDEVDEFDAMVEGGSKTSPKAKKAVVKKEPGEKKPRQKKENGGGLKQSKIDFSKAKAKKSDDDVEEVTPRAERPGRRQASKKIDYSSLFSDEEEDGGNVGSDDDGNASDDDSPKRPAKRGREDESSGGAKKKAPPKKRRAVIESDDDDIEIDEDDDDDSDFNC

Data set [2] deals with T1, topoisomerase II-DNA complex. The source holds these as a separate data set.

For `C/C=C\C1OC1(C)c1cc(=O)c2c(C)cc3c(c2o1)C(=O)c1c(O)c([C@H]2C[C@](C)(N(C)C)[C@@H](OC(C)=O)[C@@H](C)O2)cc([C@@H]2C[C@H](N(C)C)[C@@H](O)[C@@H](C)O2)c1C3=O` (some centres unmarked) [pluramycin, reference compound], the “effect of increasing topoisomerase II concentration on DNA alkylation” value in data set [1] (increasing topoisomerase II concentration) was “inhibited”.
With `COc1cc2c(c3oc4c(O)cccc4c(=O)c13)C[C@H]([C@@]1(C)CO1)O2` [psorospermin], in data set [1] (site A), the “enhancement of psorospermin alkylation at site A by topoisomerase II” value is 3 fold. Further, the “enhancement of psorospermin alkylation at site B by topoisomerase II” value in data set [1] (site B, guanine at +4′ position) was 25 fold. The “reversibility of stimulated topoisomerase II-induced DNA cleavage” value in data set [2] (addition of excess salt) is listed as “slowly reversed”. In data set [2] (site B, 10 μM drug concentration), the “psorospermin-induced DNA cleavage by topoisomerase II, maximum” value is listed as 3 fold.
